Like-named read-outs stand apart in the source and are kept apart here.
How the values were obtained:
blood glucose [1] = conditions: oral, far larger dosages per unit of body weight, unprotected, laboratory animals and humans; cited from earlier work
coagulation time = conditions: oral, far larger doses per unit of body weight, unprotected, laboratory animals and humans; cited from earlier work
[2] = tested on: Time to coagulation (fibrin clot); test: Activated Partial Thromboplastin Time (APTT) test, Table 6 (Example 8b); type: in vivo, rat
Method: Seven male white rats, each weighing approximately 600 g, are deprived of food for 12 hours before the start of the experiment. Rat #1 receives no treatment. Rat #2 receives an intravenous injection of 250 mg of heparin in one ml of distilled water. […] The effect of heparin is determined using the Activated Partial Thromboplastin Time (APTT) test. This test measures the time necessary for a sample of […] taken from the tail vein to form a fibrin clot.

[3] = insulin in solution, even when refrigerated; cited from earlier work
blood glucose [4] = tested on: blood glucose
Method: Diabetes mellitis is induced in rats weighing approximately 300 g by giving each a 75 mg/kg body weight intravenous injection of streptozotocin. Ten rats which are observed to show consistently high blood glucose levels, polyuria and polydipsia and must be maintained on subcutaneous injections of porcine insulin are selected for this experiment.
The remaining six diabetic rats are arbitrarily assigned to three groups of two animals. […] The animals of the second and third groups receive subcutaneous injections of 0.25 mg (6.5 I.U.) and 0.125 mg (3.25 I.U.), respectively, of porcine insulin. Blood glucose measurements are made on all animals immediately before dosing and at intervals thereafter. The animal groups are crossed over twice at one week intervals, so that all of the animals receive each of the insulin treatments.

blood glucose [5] = test: Blood glucose in normal rats, Table 1 (Example 2c); type: in vivo, rat; conditions: Group Four
Method: The Group Two rats have between 1.5 and 1.7 ml of the suspension similarly administered. The rats of Group Three receive 1.0 ml of distilled water similarly administered. The rats of Group Four similarly receive 25.0 mg of porcine insulin in 1.0 ml of distilled water. Both before and during the experiment, all animals are permitted free access to water and their normal feed. Blood glucose levels are measured on samples drawn from the tail at specific intervals after treatment and group averages are recorded in Table 1 as milligrams of glucose per deciliter of blood (mg/dl).

blood glucose [6] = test: Blood glucose in normal rats, Table 2 (Example 4); type: in vivo, rat; conditions: 1 ml/500 g by gavage
Method: Doses of the resulting suspension, which contain no insulin within the microspheres, are referred to as "microspheres with external insulin". Dosages of the 2.5 mg/ml solution of porcine insulin alone are referred to as "raw insulin".
Twelve male white rats, each weighing approximately 500 g and havinng a normal blood glucose level, are arbitrarily assigned to two groups of three animals and a third group of six animals. The three animals of group A are administered the insulin filled microspheres by gavage and the three animals of group B are similarly administered the microspheres with external insulin. The six animals of group C similarly receive the raw insulin. All dosages are 1 ml/500 g of body weight and all animals are tested for blood glucose immediately before dosage and at intervals thereafter.

**Q.** With bovine insulin as the substance, how does the “reduction of blood glucose levels” value (blood glucose [1]) read?
**A.** Its value is “no detectable reduction of blood glucose levels”.

**Q.** Which “increase in coagulation time” value (coagulation time) does the source give for heparin here?
**A.** Its value is “no detectable increase in coagulation time”.

**Q.** What about the “Time to Coagulation in the APTT Test” value ([2]; 1 hr, IV 250 mg) of the same substance?
**A.** Its value is 54 s.

**Q.** What about the “Time to Coagulation in the APTT Test” value ([2]; 2 hrs, IV 250 mg) of the same substance?
**A.** The value was over 300 s.

**Q.** What about the “Time to Coagulation in the APTT Test” value ([2]; Predose, IV group, 250 mg) of the same substance?
**A.** Its value is 25 s.

**Q.** Which degradation in solution [3] does the source give for insulin here?
**A.** Its degradation in solution is “degrade within a few days”.

**Q.** What does the source list for porcine insulin?
**A.** % Decrease from Baseline Blood Glucose (blood glucose [4]; 0.5 hrs, 0.125 mg SC): 5%; % Decrease from Baseline Blood Glucose (blood glucose [4]; 0.5 hrs, 0.25 mg SC): 28%; % Decrease from Baseline Blood Glucose (blood glucose [4]; 1 hrs, 0.125 mg SC): 17%; % Decrease from Baseline Blood Glucose (blood glucose [4]; 1 hrs, 0.25 mg SC): 55%; % Decrease from Baseline Blood Glucose (blood glucose [4]; 1.5 hrs, 0.125 mg SC): 27%; % Decrease from Baseline Blood Glucose (blood glucose [4]; 1.5 hrs, 0.25 mg SC): 72%; % Decrease from Baseline Blood Glucose (blood glucose [4]; 2 hrs, 0.125 mg SC): 45%; % Decrease from Baseline Blood Glucose (blood glucose [4]; 2 hrs, 0.25 mg SC): 77%; % Decrease from Baseline Blood Glucose (blood glucose [4]; 3 hrs, 0.125 mg SC): 47%; % Decrease from Baseline Blood Glucose (blood glucose [4]; 3 hrs, 0.25 mg SC): 84%; % Decrease from Baseline Blood Glucose (blood glucose [4]; 4 hrs, 0.125 mg SC): 29%; % Decrease from Baseline Blood Glucose (blood glucose [4]; 4 hrs, 0.25 mg SC): 79%; % Decrease from Baseline Blood Glucose (blood glucose [4]; 6 hrs, 0.125 mg SC): 8%; % Decrease from Baseline Blood Glucose (blood glucose [4]; 6 hrs, 0.25 mg SC): 34%; % Decrease from Baseline Blood Glucose (blood glucose [4]; 8 hrs, 0.125 mg SC): -8%; % Decrease from Baseline Blood Glucose (blood glucose [4]; 8 hrs, 0.25 mg SC): 4%; % Decrease from Baseline Blood Glucose (blood glucose [4]; 12 hrs, 0.125 mg SC): -8%; % Decrease from Baseline Blood Glucose (blood glucose [4]; 12 hrs, 0.25 mg SC): 3%; % Decrease from Baseline Blood Glucose (blood glucose [4]; 24 hrs, 0.125 mg SC): -8%; % Decrease from Baseline Blood Glucose (blood glucose [4]; 24 hrs, 0.25 mg SC): -7%; % Decrease from Baseline Blood Glucose (blood glucose [4]; 48 hrs, 0.125 mg SC): -8%; % Decrease from Baseline Blood Glucose (blood glucose [4]; 48 hrs, 0.25 mg SC): -5%; Ave. Blood Glucose (blood glucose [5]; 30 min, 25.0 mg by gavage): 120 mg/dL; Ave. Blood Glucose (blood glucose [5]; 1 hr, 25.0 mg by gavage): 120 mg/dL; Ave. Blood Glucose (blood glucose [5]; 1.5 hr, 25.0 mg by gavage): 124 mg/dL; Ave. Blood Glucose (blood glucose [5]; 2 hr, 25.0 mg by gavage): 120 mg/dL; Ave. Blood Glucose (blood glucose [5]; 3 hr, 25.0 mg by gavage): 116 mg/dL; Ave. Blood Glucose (blood glucose [5]; 4 hr, 25.0 mg by gavage): 111 mg/dL; Ave. Blood Glucose (blood glucose [5]; 6 hr, 25.0 mg by gavage): 123 mg/dL; Ave. Blood Glucose (blood glucose [5]; Predose, 25.0 mg in 1.0 ml water by gavage): 113 mg/dL; Blood Glucose (blood glucose [6]; 0 hrs): 92.7 mg/dL; effect on blood glucose levels (blood glucose [6]): no significant effect; Blood Glucose (blood glucose [6]; 1 hrs): 98.2 mg/dL; Blood Glucose (blood glucose [6]; 2 hrs): 95.8 mg/dL; Blood Glucose (blood glucose [6]; 3 hrs): 86.2 mg/dL; Blood Glucose (blood glucose [6]; 4 hrs): 91 mg/dL; Blood Glucose (blood glucose [6]; 6 hrs): 89.8 mg/dL; Blood Glucose (blood glucose [6]; 8 hrs): 91 mg/dL; Blood Glucose (blood glucose [6]; 12 hrs): 92 mg/dL; Blood Glucose (blood glucose [6]; 24 hrs): 92 mg/dL; Blood Glucose (blood glucose [6]; .5 hrs): 95.5 mg/dL; reduction of blood glucose levels (blood glucose [1]): no detectable reduction of blood glucose levels
